According to patent US20040127577A1 (priority 2002, published 2004):
Values joined by “and” are separate entries in the source; they are usually repeats but may differ in a detail not shown here. Equal entries are not always repeated. Where two headings read alike, the source gives them in different places.

Tests used:
SOD1 transgenic mice [1] = settings: mouse, in vivo
Method: (§1) The drugs were administered by drinking water starting at 60 days of age. The daily dosages were calculated based on a daily water intake of 6 ml. Fresh solutions were prepared once a week with the total consumed volume measured in order to ensure a constant daily and weekly dose. […] The study was done blindly, meaning that the treatment and the preparation of the drugs were conducted by separate individuals.
(§2) Mice were observed daily (including weekends) and weighed weekly. Motor performance was assessed from 40 days of age using the rotarod apparatus to measure the night activity of the mice from 8 p.m.-8 a.m. (LMTB, Berlin). The activity of the animals was recorded individually by a computerized system and assessed daily, including weekends. For statistical evaluation, the rotarod activity was normalized to the mean activity of each animal from day 40 to day 60.
The clinical condition of the mice was monitored daily starting at 40 days. The onset of clinical signs was scored by examining the mice for tremors and/or shaking of the limbs, and the position of one or both hind limbs (hanging rather than splaying out) when the mice were suspended in the air by their tail. The age of clinical onset was determined by the age (days) at which loss of splay or tremors of hind limbs were observed. Examining the mice for the loss of righting reflex determined the end stage of the disease. […]

SOD1 transgenic mice [2] = settings: for Mean Survival: drinking water from 60 days of age, N=15
Method: (§3) Another group of 15 mice served as controls.
as §1
The clinical condition of the mice was monitored daily starting at 40 days. The onset of clinical signs was scored by examining the mice for tremors and/or shaking of the limbs, and the position of one or both hind limbs (hanging rather than splaying out) when the mice were suspended in the air by their tail. The age of clinical onset was determined by the age (days) at which loss of splay or tremors of hind limbs were observed. Examining the mice for the loss of righting reflex determined the end stage of the disease. The mice were sacrificed if they could not right themselves within 30 seconds when placed on either side on a flat surface. This decision was made by an independent veterinarian as requested by the animal protocol. The treatment protocol was approved by the Regierungspräsident Tübingen (35/9185.81-3). The treatment and clinical evaluation were conducted by separate individuals, and thus the neurological signs for determining onset and end stage of disease were scored in a blinded manner.
(§4) Data are expressed as the mean +/−standard error of the mean (SEM). Rotarod testing and weight were compared by analysis of variance (ANOVA). Survival data were analysed by the Mantel-Cox proportional hazard model. Statistical significance was tested by one-way ANOVA followed by post-hoc Student-Newman-Keuls comparison with the SPSS-PC software program (SPSS, Chicago Ill.).

SOD1 transgenic mice [3] = experiment: Running wheel (rotarod) night activity of SOD1 transgenic mice; type: in vivo; parameters: unit not given here
Method: as §3, §1, §2, §4

SMILES: C#CCN[C@@H]1CCc2ccccc21 [rasagiline, R(+)-N-propargyl-1-aminoindan]
- signs of overt toxicity (SOD1 transgenic mice [1]): did not observe any signs of overt toxicity
- Mean Survival (SOD1 transgenic mice [2]; rasagiline 0.5 mg/kg per day): 224 days and 223.8667 days
- Mean Survival (SOD1 transgenic mice [2]; rasagiline 2.0 mg/kg per day): 239.8667 days and 239.8677 days
- increase of life span vs controls (SOD1 transgenic mice [2]; rasagiline 2.0 mg/kg per day, p<0.001): 29 days
- running wheel activity (SOD1 transgenic mice [3]; rasagiline 0.5 mg/kg, Weeks 9-12): 10087
- running wheel activity (SOD1 transgenic mice [3]; rasagiline 0.5 mg/kg, Weeks 13-16): 9037.14
- running wheel activity (SOD1 transgenic mice [3]; rasagiline 0.5 mg/kg, Weeks 17-20): 8124.12
- running wheel activity (SOD1 transgenic mice [3]; rasagiline 0.5 mg/kg, Weeks 21-24): 6070.08
- running wheel activity (SOD1 transgenic mice [3]; rasagiline 0.5 mg/kg, Weeks 25-28): 4236.96
- running wheel activity (SOD1 transgenic mice [3]; rasagiline 0.5 mg/kg, Weeks 29-36): 1196.69
- running wheel activity (SOD1 transgenic mice [3]; rasagiline 2.0 mg/kg, Weeks 9-12): 11056
- running wheel activity (SOD1 transgenic mice [3]; rasagiline 2.0 mg/kg, Weeks 13-16): 9999.44
- running wheel activity (SOD1 transgenic mice [3]; rasagiline 2.0 mg/kg, Weeks 17-20): 8787.09
- running wheel activity (SOD1 transgenic mice [3]; rasagiline 2.0 mg/kg, Weeks 21-24): 7873.22
- running wheel activity (SOD1 transgenic mice [3]; rasagiline 2.0 mg/kg, Weeks 25-28): 5902.76
- running wheel activity (SOD1 transgenic mice [3]; rasagiline 2.0 mg/kg, Weeks 29-36): 2147.29

SMILES: Nc1nc2ccc(OC(F)(F)F)cc2s1 [riluzole, 2-amino-6-trifluoromethoxy benzothiazole]
- running wheel activity (SOD1 transgenic mice [3]; riluzole 30 mg/kg, Weeks 9-12): 9729.58
- running wheel activity (SOD1 transgenic mice [3]; riluzole 30 mg/kg, Weeks 13-16): 7556.57
- running wheel activity (SOD1 transgenic mice [3]; riluzole 30 mg/kg, Weeks 17-20): 7033.85
- running wheel activity (SOD1 transgenic mice [3]; riluzole 30 mg/kg, Weeks 21-24): 4687.05
- running wheel activity (SOD1 transgenic mice [3]; riluzole 30 mg/kg, Weeks 25-28): 2696.11
- running wheel activity (SOD1 transgenic mice [3]; riluzole 30 mg/kg, Weeks 29-36): 1249.13
